Read-outs that look alike come from different tables or passages of the source.
Experiments:
[1] = biological target: T1, SARS-CoV-2 main protease (M^pro) (Severe acute respiratory syndrome coronavirus 2, UniProt P0DTD1); test: biochemical; settings: for IC50: […] substrate, pH 7.3, 15 min pre-incubation; for FRET pIC50 / apparent max. no. of reactions: ratio of FRET pIC50 to number of reactions observed by MS
[2] = biological target: T1, SARS-CoV-2 main protease (M^pro); test: biochemical
[3] = biological target: T1, SARS-CoV-2 main protease (M^pro); test: protein-observed mass spectrometry (POMS) under denaturing conditions, number of covalent reactions; type: binding; settings: 40 μM compound, 2 μM M^pro, 20 mM HEPES, pH 7.5, 50 mM NaCl, covalent reactions with M^pro
[4] = 50 nM M^pro, read-out: FRET IC50
[5] = 50 nM M^pro, read-out: FRET pIC50 (converted)
[6] = M^pro (0.3 µM) incubated 15 min with compound, TSAVLQ/SGFRK-NH2 peptide (4 µM), 10 min reaction, read-out: SPE-MS IC50
[7] = M^pro (0.3 µM) incubated 15 min with compound, TSAVLQ/SGFRK-NH2 peptide (4 µM), 10 min reaction, read-out: SPE-MS pIC50 (converted)

SMILES | IC50 [1, 4] [nM] | IC50 [1, 5] [nM] | FRET pIC50 / apparent max. no. of reactions [1] | IC50 [2, 6] [nM] | IC50 [2, 7] [nM] | Apparent max. no. of reactions [3] | most dominant no. of reactions [3] | further results
CC(C)CCn1sc2ccc(Br)cc2c1=O [Compound 4d] | ~210 | 209 | 3.3 | 430 ± 10 | 339 | 2 | 0 | most dominant no. of reactions ([3]; listed as 4 d): no reaction
COC(=O)CCn1sc2ccccc2c1=O [Compound 11] | – | 245 | 1.1 | – | 389 ± 49.9 | 6 | 2 | –
CC(C)CCn1sc2c(Br)cccc2c1=O [Compound 4c] | – | 93300 | – | > 100000 | – | completely prevents irreversible covalent reaction | – | –
CCCCCn1sc2ccccc2c1=O [Compound 7] | ~410 | 407 | 1.3 | 470 | – | 5 | 4 | –
Cc1cccc2c(=O)n(-c3ccccc3)sc12 [Compound 3b] | – | – | – | > 100000 | – | 1 | 0 | –
O=c1c2ccccc2sn1CC1CCCCC1 [Compound 6] | – | 933 | 1.0 | 530 ± 50 | – | 6 | 4 | –
CC(C)CCn1sc2ccccc2c1=O [Compound 4a] | ~320 | 316 | 1.1 | – | 417 | 6 | 4 | –
O=c1c2cnccc2sn1-c1ccccc1 [Compound 3f] | – | – | 0.7 | – | 427 | 9 | 5 | –
COCCn1sc2ccccc2c1=O [Compound 10] | – | – | 1.2 | – | – | 5 | 2 | IC50 ([1]; FRET IC50, 50 nM M^pro): 950 ± 40 nM; IC50 ([1]; FRET pIC50, 50 nM M^pro): 776 nM; IC50 [2]: 780 ± 180 nM
O=c1[nH]sc2ccccc12 [Compound 2] | – | – | 1.0 | – | – | 6 | 2 | IC50 ([1]; FRET IC50, 50 nM M^pro): 1510 ± 90 nM; IC50 [2]: 990 ± 150 nM
O=c1c2cccc(Br)c2sn1-c1ccccc1 [Compound 3c] | – | – | – | 10900 ± 820 | – | completely prevents irreversible covalent reaction | – | –
O=c1c2cc(Br)ccc2sn1-c1ccccc1 [Compound 3e] | – | 30.9 | 3.8 | – | 339 ± 19.9 | – | 1 | –
O=C1C[C@H](Cn2sc3ccccc3c2=O)CN1 [Compound 9] | 510 ± 20 | – | 2.1 | 2550 ± 570 | 2510 | – | – | –
COC(=O)Cn1c(=O)c2ccccc2[s+]1[O-] (stereo not drawn) [Compound 12] | 2830 ± 340 | – | – | 20100 ± 1120 | – | – | – | –
O=c1c2ccccc2sn1Cc1ccccc1 [Compound 5] | – | 178 | 1.1 | 430 ± 30 | 437 | 6 | 4 | –
O=c1c2cccc(-c3ccccc3)c2sn1-c1ccccc1 [Compound 3d] | – | – | – | > 100000 | – | completely prevents irreversible covalent reaction | – | –
O=c1c2ccccc2sn1-c1ccccn1 [Compound 8] | 220 ± 100 | 214 | 1.1 | 790 ± 90 | – | 6 | 2 | –
O=c1c2ccccc2sn1-c1ccccc1 [Compound 3a] | ~130 | 129 | 0.6 | – | – | 11/11 | 11/11 | IC50 ([2]; read-out: SPE-MS pIC50 (converted)): 339 ± 69.8 nM; Apparent max. no. of reactions ([3]; listed as 3 a): 11; most dominant no. of reactions ([3]; listed as 3 a): 11
O=c1c2ccccc2[se]n1-c1ccccc1 [Compound 1, ebselen, reference compound] | – | – | – | – | – | 12/12 | 12/12 | Apparent max. no. of reactions ([3]; listed as ebselen): up to 12
Cc1cccc2c(=O)n(CCC(C)C)sc12 [Compound 4b] | – | – | – | > 100000 | – | 0 | – | –
